This note sets out measurements from patent US9708268B2, “ROR modulators and their uses” (INNOV17 LLC, priority 2012, dated 2017).

One data set deals with IL-23R. The data set can be described thus: Real-time qRT-PCR gene expression in TH17 cells (IL-23R). It counts as cell-based, human. On the set-up: key: A: No change in gene expression observed relative to DMSO treated TH17 cells; B: Decreased gene expression observed relative to DMSO treated TH17 cells; C: Increased gene expression observed relative to DMSO treated TH17 cells. As to conditions: mRNA. As to the method: (§1) Peripheral blood mononuclear cells (PBMCs) were sourced from freshly prepared leukocyte enriched plasma (buffy coat) from healthy volunteers from which PBMCs were isolated by density gradient centrifugation using Ficoll-Paque™ PLUS (GE Healthcare). Naïve CD4+ T cells were isolated using the Naïve CD4+ T cell Isolation Kit II (Miltenyi Biotec) as per manufacturer's instructions. CD4+ T cells were plated at 5×10^4 cells/well in 96 well plates pre-coated with immobilized human (h)-αCD3 antibody (eBioscience) then differentiated to TH17 cells using h-αCD28, h-αIFN-γ, h-αIL-4, h-IL-6, h-IL-23, […], h-TGF-β1 (eBioscience) and maintained in a cell culture incubator at 37° C. with 5% CO2 in TexMACS Medium (Miltenyi Biotec) supplemented with 1% Penicillin/Streptomycin (Lonza) over 5 days.
(§2) RNA was isolated from TH17 cells and cDNA was synthesized using the Verso cDNA kit (Thermo Scientific) as per manufacturer's instructions. IL-17A, IL-17F, IL-21, IL-22, G-CSF, IL-23R and FOXP3 gene expression were determined for compound treated and untreated TH17 cell samples using Solaris qPCR Gene expression assays (Thermo Scientific) with an iCycler iQ Real-Time PCR Detection System (Bio-Rad). Individual gene expression was normalized to a panel of six reference genes (ACTB, TBP, HPRT1, PGK1, TFRC and PPIA) (Thermo Scientific) and analyzed by REST 2009 (Qiagen) in accordance to MIQE guidelines (Bustin, et al. (2009) Clin. Chem. 55, 611-622), which is hereby incorporated by reference in its entirety). The effects of compounds on TH17 cytokine mRNA levels are presented as fold change in gene expression of compound treated TH17 cells relative to DMSO treated cells in the table below.
Background: Real-time PCR tracks product formation cycle by cycle.

Another data set has as its system TH17 cells. The data set can be described thus: TH17 cellular proliferation (Prestoblue). As to conditions: 3 μM compound, after 5 day TH17 differentiation, relative to DMSO treated cells. It counts as cell-based, human. As to the method: as §1
Cellular proliferation was assessed in the presence or absence of 3 μM compound using Prestoblue® Cell Viability Reagent (Life Technologies) as per manufacturer's instructions using absorbance as the output measured by a microplate reader (Perkin Elmer) after 30 minutes of incubation of cells and reagent. A standard curve developed by plotting varying cell numbers versus absorbance was used to assess differences in cellular proliferation between compound treated or untreated cells after the 5 day TH17 differentiation period.

In a further data set the test system is IL-17AF. The data set can be described thus: TH17 cytokine inhibition as measured by ELISA (IL-17AF). It counts as cell-based. The conditions noted are these: 120 h; human CD4+ T cells differentiated to TH17 over 5 days, supernatant ELISA, vs DMSO. As for the experimental part:
as §1
(§3) Human CD4+ T cells were differentiated to TH17 cells as described in the presence or absence of various concentrations of compounds in a final concentration of 0.1% DMSO in TexMACS medium. Supernatants were collected and stored at −20° C. until they were to be assayed for IL-17A, IL-17F, IL-17AF, IL-21 and/or IL-22 levels as determined by Ready-Set-Go ELISA kits (eBioscience) as per manufacturer's instructions. Endpoint absorbance was read at 450 nm and 570 nm according to manufacturer's instructions (eBioscience) using a microplate reader (Perkin Elmer). The percentage of cytokine inhibition was calculated with reference to DMSO treated cells and the IC50s were determined by GraphPad Prism software and presented in the table below.
In general terms: ELISA stands for enzyme-linked immunosorbent assay.

Data set [1] concerns IL-17F. The data set can be described thus: TH17 cytokine inhibition as measured by ELISA (IL-17F). The data set is classed as cell-based. As to conditions: 120 h; human CD4+ T cells differentiated to TH17 over 5 days, supernatant ELISA, vs DMSO. As to the method: as §1, §3
For data set [2], the system named is IL-17A. The data set can be described thus: TH17 cytokine inhibition as measured by ELISA (IL-17A). It counts as cell-based. As to conditions: 120 h; human CD4+ T cells differentiated to TH17 over 5 days, supernatant ELISA, vs DMSO. As to the method: as §1, §3
For another data set, the system named is IL-21. The data set can be described thus: Real-time qRT-PCR gene expression in TH17 cells (IL-21). It counts as cell-based, human. On the set-up: key: A: No change in gene expression observed relative to DMSO treated TH17 cells; B: Decreased gene expression observed relative to DMSO treated TH17 cells; C: Increased gene expression observed relative to DMSO treated TH17 cells. As to conditions: mRNA. As to the method:
as §1, §2

The test system of a further data set is FOXP3. The data set can be described thus: Real-time qRT-PCR gene expression in TH17 cells (FOXP3). On the set-up: key: A: No change in gene expression observed relative to DMSO treated TH17 cells; B: Decreased gene expression observed relative to DMSO treated TH17 cells; C: Increased gene expression observed relative to DMSO treated TH17 cells. As to conditions: mRNA. The data set is classed as cell-based, human. As for the experimental part: as §1, §2

Data set [3] deals with IL-17F. The data set can be described thus: Real-time qRT-PCR gene expression in TH17 cells (IL-17F). The data set is classed as cell-based, human. On the set-up: key: A: No change in gene expression observed relative to DMSO treated TH17 cells; B: Decreased gene expression observed relative to DMSO treated TH17 cells; C: Increased gene expression observed relative to DMSO treated TH17 cells. As to conditions: mRNA. As for the experimental part: as §1, §2

Data set [4] deals with IL-22. The data set can be described thus: TH17 cytokine inhibition as measured by ELISA (IL-22). The data set is classed as cell-based. As to conditions: 120 h; human CD4+ T cells differentiated to TH17 over 5 days, supernatant ELISA, vs DMSO. As for the experimental part:
as §1, §3

Data set [5] can be described thus: TH17 cell viability (Prestoblue). It counts as cell-based. On the set-up: concentration or dose not given beside the values. As to conditions: human; percentage of DMSO treated cells; read-out: % viability of compound treated TH17 cells. As for the experimental part: as §1
Cells were assayed for viability in the presence or absence of compound using Prestoblue® Cell Viability Reagent (Life Technologies) as per manufacturer's instructions after 30 minutes incubation of TH17 cells with reagent. Absorbance was measured at 570 nm and 600 nm using a microplate reader (Perkin Elmer) and data were analyzed as per manufacturer's instructions. Cell viability was expressed as a percentage of DMSO treated cells.

The test system of data set [6] is IL-22. The data set can be described thus: Real-time qRT-PCR gene expression in TH17 cells (IL-22). It counts as cell-based, human. On the set-up: key: A: No change in gene expression observed relative to DMSO treated TH17 cells; B: Decreased gene expression observed relative to DMSO treated TH17 cells; C: Increased gene expression observed relative to DMSO treated TH17 cells. The conditions noted are these: mRNA. As for the experimental part: as §1, §2

The test system of data set [7] is IL-17A. The data set can be described thus: Real-time qRT-PCR gene expression in TH17 cells (IL-17A). It counts as cell-based, human. On the set-up: key: A: No change in gene expression observed relative to DMSO treated TH17 cells; B: Decreased gene expression observed relative to DMSO treated TH17 cells; C: Increased gene expression observed relative to DMSO treated TH17 cells. As to conditions: mRNA. As for the experimental part:
as §1, §2

For another data set, the target named is human RORγ LBD (Homo sapiens (Human), UniProt P51449). The data set can be described thus: RORγ LBD binding (Human RORγ Assay System, INDIGO Biosciences). As for the experimental part:
Compound binding to the human RORγ LBD was assessed using the Human RORγ Assay System (INDIGO Biosciences Inc.) as per manufacturer's instructions.

human RORγ LBD, sequence (P51449 269-508): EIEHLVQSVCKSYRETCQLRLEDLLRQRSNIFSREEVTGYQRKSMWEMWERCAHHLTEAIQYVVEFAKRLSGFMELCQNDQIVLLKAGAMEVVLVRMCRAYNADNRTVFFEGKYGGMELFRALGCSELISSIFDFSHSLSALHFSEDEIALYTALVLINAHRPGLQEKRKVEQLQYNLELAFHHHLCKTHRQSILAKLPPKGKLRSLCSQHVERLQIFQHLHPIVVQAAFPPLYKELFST

`NC(=O)c1ccc2c(c1)CCCN2Cc1ccc(C(O)(C(F)(F)F)C(F)(F)F)cc1` [Example 2, 1-(4-(1,1,1,3,3,3-hexafluoro-2-hydroxypropan-2-yl)benzyl)-1,2,3,4-tetrahydroquinoline-6-carboxamide]: the “Change in gene expression of compound treated TH17 cells relative to DMSO treated cells, IL-23R” value in the data set on IL-23R is on record as “A”. Also, in the data set on TH17 cells, the “% change in TH17 cell number” value is “B (≦50% decrease in cell proliferation relative to DMSO treated TH17 cells)”. Besides, the IC50 in the data set with IL-17AF, in the data set on IL-17F [1], in the data set with IL-17A [2] and in the data set with IL-22 [4] was under 10 µM each time. Moreover, the “Change in gene expression of compound treated TH17 cells relative to DMSO treated cells, IL-21” value in the data set on IL-21 is listed as “A”. Also, the “Change in gene expression of compound treated TH17 cells relative to DMSO treated cells, FOXP3” value in the data set on FOXP3 was “A”. The “Change in gene expression of compound treated TH17 cells relative to DMSO treated cells, IL-17F” value with IL-17F [3] is recorded as “A”. For the same compound, the viability (commonly a read-out of living cells in per cent, often relative to untreated cells) in data set [5] was over 80%. In the data set on IL-22 [6], the “Change in gene expression of compound treated TH17 cells relative to DMSO treated cells, IL-22” value is listed as “A”. Also, the “Change in gene expression of compound treated TH17 cells relative to DMSO treated cells, IL-17A” value in the data set with IL-17A [7] was “A”.
Regarding `CNC(=O)c1ccc2c(c1)CCCN2Cc1ccc(C(O)(C(F)(F)F)C(F)(F)F)cc1` [Example 3, 1-(4-(1,1,1,3,3,3-hexafluoro-2-hydroxypropan-2-yl)benzyl)-N-methyl-1,2,3,4-tetrahydroquinoline-6-carboxamide], the “Change in gene expression of compound treated TH17 cells relative to DMSO treated cells, IL-23R” value in the data set on IL-23R is given as “A”. Besides, in the data set with TH17 cells, the “% change in TH17 cell number” value was “B (≦50% decrease in cell proliferation relative to DMSO treated TH17 cells)”. In addition, the IC50 with IL-17AF, with IL-17F [1], on human RORγ LBD, in the data set with IL-17A [2] and in the data set on IL-22 [4] was under 10 µM throughout. In addition, in the data set on IL-21, the “Change in gene expression of compound treated TH17 cells relative to DMSO treated cells, IL-21” value was “A”. For the same compound, the “Change in gene expression of compound treated TH17 cells relative to DMSO treated cells, FOXP3” value in the data set on FOXP3 is “A”. Also, in the data set on IL-17F [3], the “Change in gene expression of compound treated TH17 cells relative to DMSO treated cells, IL-17F” value was “A”. Further, the viability in data set [5] is over 80%. In the data set on IL-22 [6], the “Change in gene expression of compound treated TH17 cells relative to DMSO treated cells, IL-22” value is “A”. Also, in the data set on IL-17A [7], the “Change in gene expression of compound treated TH17 cells relative to DMSO treated cells, IL-17A” value is “A”.
For the compound `CN(C)C(=O)c1ccc2c(c1)CCCN2Cc1ccc(C(O)(C(F)(F)F)C(F)(F)F)cc1` [Example 4, 1-(4-(1,1,1,3,3,3-hexafluoro-2-hydroxypropan-2-yl)benzyl)-N,N-dimethyl-1,2,3,4-tetrahydroquinoline-6-carboxamide], in the data set with IL-23R, the “Change in gene expression of compound treated TH17 cells relative to DMSO treated cells, IL-23R” value is on record as “A”. Also, the “% change in TH17 cell number” value in the data set on TH17 cells is “B (≦50% decrease in cell proliferation relative to DMSO treated TH17 cells)”. In addition, the IC50 in the data set on IL-17AF, in the data set with IL-17F [1], on human RORγ LBD, in the data set on IL-17A [2] and with IL-22 [4] was under 10 µM each time. The “Change in gene expression of compound treated TH17 cells relative to DMSO treated cells, IL-21” value with IL-21 is on record as “A”. Besides, in the data set on FOXP3, the “Change in gene expression of compound treated TH17 cells relative to DMSO treated cells, FOXP3” value was “A”. Further, the “Change in gene expression of compound treated TH17 cells relative to DMSO treated cells, IL-17F” value in the data set on IL-17F [3] is “A”. The viability in [5] is over 80%. In addition, the “Change in gene expression of compound treated TH17 cells relative to DMSO treated cells, IL-22” value in the data set on IL-22 [6] is listed as “A”. Also, the “Change in gene expression of compound treated TH17 cells relative to DMSO treated cells, IL-17A” value with IL-17A [7] is given as “A”.
For the compound `CNC(=O)c1ccc2c(c1)CCC(=O)N2Cc1ccc(C(O)(C(F)(F)F)C(F)(F)F)cc1` [Example 6, 1-(4-(1,1,1,3,3,3-hexafluoro-2-hydroxypropan-2-yl)benzyl)-N-methyl-2-oxo-1,2,3,4-tetrahydroquinoline-6-carboxamide], the IC50 – broadly, the point on the concentration scale where inhibition reaches its midpoint – is under 10 µM in the data set on IL-17AF, over 10 µM in the data set on IL-17F [1], over 10 µM on human RORγ LBD and over 10 µM in the data set with IL-17A [2]. In addition, in data set [5], the viability was over 80%.
